Among the data in patent US12643912B2, “Macrocyclic compounds, a process for their preparation and pharmaceutical compositions containing them” (LES LABORATOIRES SERVIER, priority 2020, dated 2026) are EC50 and Kd values, retold here.

Read-outs that look alike come from different tables or passages of the source.

For test [1], the system named is Nrf2 (Keap1-NRF2 nuclear translocation). The experiment in a line: U2OS translocation assay (PathHunter U2OS Keap1-NRF2 Nuclear Translocation Cell Line). Type of test: cell-based. Summed up: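 Enzyme-fragment complementation read-out: luminescence after 60 min of detection reagent at room temperature, following a 3 h, 37° C compound exposure of engineered U2OS Keap1-NRF2 translocation cells (1% FBS medium). Signal scaled from 1% DMSO basal to 10 μM andrographolide maximum.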

In test [2] the target is T1, Keap1 (A321-C624) (h) (Homo sapiens, UniProt Q14145).
T1 construct: His-Thromb-KEAP1(A321-C624) acquired from Novalix (batch PU-P01) was immobilized covalently by amine coupling; His tag (N); thrombin cleavage site (Thromb) (N); purchased Novalix batch PU-P01
The experiment in a line: Surface Plasmon Resonance binding assay to Kelch domain of KEAP1. The note with it: Biacore T200, 25° C., immobilized His-Thromb-KEAP1(A321-C624), single cycle kinetics, KD=kd/ka from 1:1 fit; read-out: Keap1 (A321-C624) (h) direct/SPR (KD). Summed up: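 His-Thromb-KEAP1(A321-C624) amine-coupled on CM5 chip to 1250 RU; amine blank reference. Run at 25° C in HEPES pH 7.4, 150 mM NaCl, 3 mM EDTA, 1 mM TCEP, 0.05% P20, 5% DMSO; 180 s association, 720 s dissociation, 50 μL/min. KD = kd/ka from 1:1 kinetic fit, double-referenced, DMSO solvent-corrected.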

Where [3] appears, read: read-out: CELLULAR U2OS EC50, U2OS Keap1-NRF2 nuclear translocation cells, 3 h incubation, luminescence, normalized between 1% DMSO and 10 μM andrographolide.
Setting [4] is: Homo sapiens, U2OS, 3 h, read-out: CELLULAR U2OS EC50 (nM), U2OS Keap1-NRF2 nuclear translocation cells, 3 h incubation, luminescence, normalized between 1% DMSO and 10 μM andrographolide.

T1 sequence (Q14145 321-624): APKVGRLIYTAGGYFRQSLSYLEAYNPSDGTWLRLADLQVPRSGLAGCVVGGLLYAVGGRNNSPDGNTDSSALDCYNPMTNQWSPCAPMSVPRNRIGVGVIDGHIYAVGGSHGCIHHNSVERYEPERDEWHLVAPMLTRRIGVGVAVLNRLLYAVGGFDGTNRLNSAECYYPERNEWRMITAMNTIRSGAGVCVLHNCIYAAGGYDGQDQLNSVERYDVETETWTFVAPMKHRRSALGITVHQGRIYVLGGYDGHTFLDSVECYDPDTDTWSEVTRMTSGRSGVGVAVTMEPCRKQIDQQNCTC

In the case of `Cc1ccc2cc1CN1Cc3cc(ccc3OS1(=O)=O)OC[C@H](C)CCn1nnc3c(C)c(ccc31)C2CC(=O)O` (single isomer, unassigned) [Example 45b], in test [1] (setting [3]), the EC50 worked out at 144 nM. For the same compound, the Kd in test [2] amounted to 2.35 nM.

Regarding `COc1ccc2cc1CN1Cc3cc(ccc3OS1(=O)=O)OCc1ccccc1OCCCCn1nnc3c(C)c(ccc31)C2CC(=O)O` (single isomer, unassigned) [Example 53a, [4-Methoxy-39-methyl-35,35-dioxo-21,29,34-trioxa-35λ^6-thia-1,14,15,16-tetraazaheptacyclo[28.5.3.1^3,70.1^9,130.0^12,160.0^22,270.0^33,37]tetraconta-3(40),4,6,9(39),10,12,14,22,24,26,30,32,37-tridecaen-8-yl]acetic acid], the EC50 in test [1] (setting [3]) was 369 nM. Further, the Kd in test [2] is 47.7 nM.

Consider `COc1ccc2cc1CN1Cc3cc(ccc3OS1(=O)=O)OCc1ccccc1OCCCCn1nnc3c(C)c(ccc31)C2CC(=O)O` (single isomer, unassigned) [Example 53b, [4-Methoxy-39-methyl-35,35-dioxo-21,29,34-trioxa-35λ^6-thia-1,14,15,16-tetraazaheptacyclo[28.5.3.1^3,70.1^9,130.0^12,160.0^22,270.0^33,37]tetraconta-3(40),4,6,9(39),10,12,14,22,24,26,30,32,37-tridecaen-8-yl]acetic acid], for which the EC50 in test [1] (setting [3]) was determined as 899 nM. In addition, in test [2], the Kd was found to be 176 nM.

Regarding `COc1ccc2cc1CN1Cc3cc(ccc3OS1(=O)=O)OCc1ccccc1SCCCCn1nnc3c(C)c(ccc31)C2CC(=O)O` (single isomer, unassigned) [Example 54a], in test [1] (setting [4]), the EC50 was 1290 nM. The Kd in test [2] came out at 90.5 nM.

In the case of `COc1ccc2cc1CN1Cc3cc(ccc3OS1(=O)=O)OCc1ccccc1SCCCCn1nnc3c(C)c(ccc31)C2CC(=O)O` (single isomer, unassigned) [Example 54b], the EC50 in test [1] (setting [3]) was determined as 2270 nM. Besides, in test [2], the Kd was determined as 391 nM.

As for `Cc1ccc2cc1CN1Cc3cc(ccc3OS1(=O)=O)OCc1ccccc1OCCCn1nnc3c(C)c(ccc31)C2CC(=O)O` (single isomer, unassigned) [Example 57a, [4,38-Dimethyl-34,34-dioxo-20,28,33-trioxa-34λ^6-thia-1,14,15,16-tetraazaheptacyclo[27.5.3.1^3,70.1^9,130.0^12,160.0^21,260.0^32,36]nonatriaconta-3(39),4,6,9(38),10,12,14,21,23,25,29,31,36-tridecaen-8-yl]acetic acid], the EC50 in test [1] (setting [3]) was found to be 496 nM. In addition, the Kd in test [2] worked out at 58.9 nM.

In the case of `Cc1ccc2cc1CN1Cc3cc(ccc3OS1(=O)=O)OCc1ccccc1OCCCn1nnc3c(C)c(ccc31)C2CC(=O)O` (single isomer, unassigned) [Example 57b, [4,38-Dimethyl-34,34-dioxo-20,28,33-trioxa-34λ^6-thia-1,14,15,16-tetraazaheptacyclo[27.5.3.1^3,70.1^9,130.0^12,160.0^21,260.0^32,36]nonatriaconta-3(39),4,6,9(38),10,12,14,21,23,25,29,31,36-tridecaen-8-yl]acetic acid], the EC50 in test [1] (setting [3]) was 2820 nM. For the same compound, in test [2], the Kd was determined as 498 nM.

With `Cc1ccc2cc1CN1Cc3cc(ccc3OS1(=O)=O)OCCN(c1ccccc1)CCn1nnc3c(C)c(ccc31)C2CC(=O)O` (single isomer, unassigned) [Example 58a, [4,32-Dimethyl-28,28-dioxo-19-phenyl-22,27-dioxa-28λ^6-thia-1,14,15,16,19-pentaazahexacyclo[21.5.3.1^3,70.1^9,130.0^12,160.0^26,30]tritriaconta-3(33),4,6,9(32),10,12,14,23,25,30-decaen-8-yl]acetic acid], the EC50 in test [1] (setting [3]) was 90.4 nM. For the same compound, in test [2], the Kd came to 4.66 nM.

With `Cc1ccc2cc1CN1Cc3cc(ccc3OS1(=O)=O)OCCN(c1ccccc1)CCn1nnc3c(C)c(ccc31)C2CC(=O)O` (single isomer, unassigned) [Example 58b, [4,32-Dimethyl-28,28-dioxo-19-phenyl-22,27-dioxa-28λ^6-thia-1,14,15,16,19-pentaazahexacyclo[21.5.3.1^3,70.1^9,130.0^12,160.0^26,30]tritriaconta-3(33),4,6,9(32),10,12,14,23,25,30-decaen-8-yl]acetic acid], the half-maximal effective concentration (EC50) in test [1] (setting [3]) came out at 427 nM. In addition, the Kd in test [2] came out at 12.5 nM.

For `COc1ccc2cc1CN1Cc3cc(ccc3OS1(=O)=O)OCCOCCn1nnc3c(C)c(ccc31)C2CC(=O)O` (single isomer, unassigned) [Example 59a, [4-Methoxy-32-methyl-28,28-dioxo-19,22,27-trioxa-28λ^6-thia-1,14,15,16-tetraazahexacyclo[21.5.3.1^3,70.1^9,130.0^12,160.0^26,30]tritriaconta-3(33),4,6,9(32),10,12,14,23,25,30-decaen-8-yl]acetic acid], in test [1] (setting [4]), the EC50 was determined as 311 nM. Besides, the Kd in test [2] was found to be 5.07 nM.

Regarding `Cc1ccc2cc1CN1Cc3cc(ccc3OS1(=O)=O)OCc1ccccc1CCn1nnc3c(C)c(ccc31)C2CC(=O)O` (single isomer, unassigned) [Example 62a, [4,36-Dimethyl-32,32-dioxo-26,31-dioxa-32λ^6-thia-1,14,15,16-tetraazaheptacyclo[25.5.3.1^3,70.1^9,130.0^12,160.0^19,240.0^30,34]heptatriaconta-3(37),4,6,9(36),10,12,14,19,21,23,27,29,34-tridecaen-8-yl]acetic acid], the EC50 in test [1] (setting [4]) was determined as 177 nM. The Kd in test [2] was 3 nM.

Turning to `Cc1ccc2cc1CN1Cc3cc(ccc3OS1(=O)=O)OCCSCCn1nnc3c(C)c(ccc31)C2CC(=O)O` (single isomer, unassigned) [Example 63a, [4,32-Dimethyl-28,28-dioxo-22,27-dioxa-19,28λ^6-dithia-1,14,15,16-tetraazahexacyclo[21.5.3.1^3,70.1^9,130.0^12,160.0^26,30]tritriaconta-3(33),4,6,9(32),10,12,14,23,25,30-decaen-8-yl]acetic acid], the EC50 in test [1] (setting [4]) stood at 57.1 nM. The Kd in test [2] is 4.39 nM.

In the case of `Cc1ccc2cc1CN1Cc3c(ccc(c3Cl)OCCCCn3nnc4c(C)c(ccc43)C2CC(=O)O)OS1(=O)=O` (single isomer, unassigned) [Example 66a, [30-Chloro-4,31-dimethyl-27,27-dioxo-21,26-dioxa-27λ^6-thia-1,14,15,16-tetraazahexacyclo[20.5.3.1^3,70.1^9,130.0^12,160.0^25,29]dotriaconta-3(32),4,6,9(31),10,12,14,22,24,29-decaen-8-yl]acetic acid], in test [1] (setting [3]), the EC50 stood at 3.44 nM. Besides, the Kd in test [2] came out at 0.678 nM.

Regarding `Cc1ccc2cc1CN1Cc3c(ccc(c3Cl)OCCCCn3nnc4c(C)c(ccc43)C2CC(=O)O)OS1(=O)=O` (single isomer, unassigned) [Example 66b, [30-Chloro-4,31-dimethyl-27,27-dioxo-21,26-dioxa-27λ^6-thia-1,14,15,16-tetraazahexacyclo[20.5.3.1^3,70.1^9,130.0^12,160.0^25,29]dotriaconta-3(32),4,6,9(31),10,12,14,22,24,29-decaen-8-yl]acetic acid], the EC50 in test [1] (setting [3]) is 17.9 nM. The Kd in test [2] was found to be 0.833 nM.

Consider `Cc1ccc2cc1CN1Cc3cc(ccc3OS1(=O)=O)Oc1ccccc1NCCCn1nnc3c(C)c(ccc31)C2CC(=O)O` (single isomer, unassigned) [Example 71a, [4,37-Dimethyl-33,33-dioxo-27,32-dioxa-33λ^6-thia-1,14,15,16,20-pentaazaheptacyclo[26.5.3.1^3,70.1^9,130.0^12,160.0^21,260.0^31,35]octatriaconta-3(38),4,6,9(37),10,12,14,21,23,25,28,30,35-tridecaen-8-yl]acetic acid], for which the EC50 in test [1] (setting [4]) was 42 nM. The Kd in test [2] stood at 19.3 nM.

In the case of `Cc1ccc2cc1CN1Cc3cc(ccc3OS1(=O)=O)OCCCCn1cc(nn1)C(=O)NC2CC(=O)O` (single isomer, unassigned) [Example 72a, [4-Methyl-10,25,25-trioxo-19,24-dioxa-25λ^6-thia-1,9,12,13,14-pentaazapentacyclo[18.5.3.1^3,70.1^11,140.0^23,27]triaconta-3(30),4,6,11(29),12,20,22,27-octaen-8-yl]acetic acid], in test [1] (setting [4]), the EC50 was over 3160 nM. Further, the Kd in test [2] amounted to 23.6 nM.

`Cc1ccc2cc1CN1Cc3cc(ccc3OS1(=O)=O)OCCCCn1cc(nn1)C(=O)NC2CC(=O)O` (single isomer, unassigned) [Example 72b, [4-Methyl-10,25,25-trioxo-19,24-dioxa-25λ^6-thia-1,9,12,13,14-pentaazapentacyclo[18.5.3.1^3,70.1^11,140.0^23,27]triaconta-3(30),4,6,11(29),12,20,22,27-octaen-8-yl]acetic acid]: the EC50 in test [1] (setting [3]) was over 3160 nM. Further, the Kd in test [2] was 730 nM.

As to `Cc1ccc2cc1CN1Cc3cc(ccc3OS1(=O)=O)OCCCCCOc1cc(c(C)c3nnn(C)c13)C2CC(=O)O` (single isomer, unassigned) [Example 73a, [4,10,14-Trimethyl-29,29-dioxo-17,23,28-trioxa-29λ^6-thia-1,12,13,14-tetraazahexacyclo[22.5.3.1^3,70.1^9,160.0^11,150.0^27,31]tetratriaconta-3(34),4,6,9(33),10,12,15,24,26,31-decaen-8-yl]acetic acid], in test [1] (setting [3]), the EC50 came out at 63.4 nM. The Kd in test [2] amounted to 6.23 nM.
